In the NIST ThermoML archive (doi:10.1021/je0302304):

Assay: xn = mol fraction of the nth substance listed
Conditions: 101.32 kPa, Liquid

COCCOC [1,2-dimethoxyethane] + CCO
mass density [kg/m3]
Conditions	288.15 K	298.15 K	308.15 K	318.15 K
x1 = 0.0045	794.5	786	777.3	768.5
x1 = 0.0086	795.2	786.6	777.9	769
x1 = 0.0125	795.8	787.1	778.4	769.6
x1 = 0.0165	796.4	787.7	779	770.1
x1 = 0.0205	797	788.3	779.6	770.7
x1 = 0.0305	798.5	789.8	781	772
x1 = 0.05	801.3	792.5	783.6	774.6
x1 = 0.1	807.9	799	790	780.7
x1 = 0.15	814.2	805	795.8	786.3
x1 = 0.2	819.9	810.6	801.2	791.5
x1 = 0.25	825.2	815.7	806.1	796.3
x1 = 0.3	830.1	820.5	810.7	800.7
x1 = 0.35	834.6	824.9	815	804.8
x1 = 0.4	838.8	829	818.9	808.7
x1 = 0.45	842.7	832.8	822.6	812.2
x1 = 0.5	846.4	836.3	826	815.5
x1 = 0.55	849.8	839.6	829.2	818.6
x1 = 0.6	853	842.7	832.1	821.5
x1 = 0.6499	856	845.5	834.9	824.1
x1 = 0.7	858.7	848.2	837.5	826.6
x1 = 0.7499	861.3	850.7	839.9	829
x1 = 0.7999	863.7	853.1	842.2	831.2
x1 = 0.85	866.1	855.4	844.5	833.4
x1 = 0.9	868.3	857.5	846.6	835.4
x1 = 0.9499	870.4	859.5	848.5	837.3
x1 = 1	872.4	861.5	850.4	839.2

COCCOCCOCCOCCOC [2,5,8,11,14-pentaoxapentadecane] + CCO
mass density [kg/m3]
Conditions	288.15 K	298.15 K	308.15 K	318.15 K
x1 = 0.0045	797.9	789.4	780.7	771.9
x1 = 0.0085	801.4	792.9	784.2	775.3
x1 = 0.0125	804.8	796.3	787.6	778.7
x1 = 0.0165	808.2	799.6	790.9	782
x1 = 0.0205	811.5	802.9	794.2	785.3
x1 = 0.0305	819.5	810.8	802	793.1
x1 = 0.05	833.6	824.9	816.1	807.1
x1 = 0.1	864.1	855.1	846.2	837.1
x1 = 0.15	888	878.9	869.9	860.7
x1 = 0.2	907.3	898.1	889.1	879.9
x1 = 0.25	923.3	914.1	905	895.7
x1 = 0.3	936.6	927.4	918.2	908.9
x1 = 0.35	947.9	938.6	929.5	920.2
x1 = 0.4	957.6	948.3	939.2	929.8
x1 = 0.45	966	956.7	947.5	938.2
x1 = 0.5	973.4	964.1	954.9	945.5
x1 = 0.55	979.9	970.6	961.3	952
x1 = 0.6	985.7	976.3	967.1	957.8
x1 = 0.6499	990.9	981.5	972.3	963
x1 = 0.7	995.6	986.2	977	967.6
x1 = 0.7498	999.8	990.4	981.2	971.9
x1 = 0.7999	1003.6	994.2	985	975.6
x1 = 0.8499	1007	997.7	988.4	979.1
x1 = 0.8997	1010.2	1000.9	991.6	982.4
x1 = 0.9496	1013.2	1003.8	994.6	985.3
x1 = 1	1016	1006.6	997.4	988.1

COCCOCCOCCOC [2,5,8,11-tetraoxadodecane] + CCO
mass density [kg/m3]
Conditions	288.15 K	298.15 K	308.15 K	318.15 K
x1 = 0.0045	796.7	788.2	779.5	770.6
x1 = 0.0085	799.3	790.7	782	773.1
x1 = 0.0125	801.7	793.2	784.4	775.5
x1 = 0.0165	804.2	795.6	786.8	778
x1 = 0.0205	806.6	798	789.2	780.3
x1 = 0.0305	812.4	803.7	794.9	786
x1 = 0.05	823	814.2	805.4	796.4
x1 = 0.1	846.7	837.7	828.8	819.7
x1 = 0.15	866.4	857.3	848.3	839
x1 = 0.2	882.9	873.6	864.5	855.2
x1 = 0.25	896.9	887.7	878.6	869.2
x1 = 0.3	909.2	900	890.7	881.4
x1 = 0.35	919.8	910.5	901.3	891.9
x1 = 0.4	929.2	919.8	910.5	901.1
x1 = 0.4499	937.4	928	918.6	909.2
x1 = 0.5	944.8	935.3	925.9	916.4
x1 = 0.55	951.4	941.9	932.4	922.9
x1 = 0.6	957.3	947.7	938.3	928.8
x1 = 0.65	962.7	953.1	943.7	934.2
x1 = 0.7	967.5	958	948.6	939
x1 = 0.75	972	962.4	953	943.5
x1 = 0.7999	976.1	966.5	957.1	947.5
x1 = 0.8499	979.9	970.3	960.8	951.3
x1 = 0.8998	983.4	973.8	964.3	954.8
x1 = 0.9498	986.7	977.1	967.6	958.1
x1 = 1	989.7	980.1	970.7	961.1

COCCOCCOC [2,5,8-trioxanonane] + CCO
mass density [kg/m3]
Conditions	288.15 K	298.15 K	308.15 K	318.15 K
x1 = 0.0045	795.6	787	778.4	769.6
x1 = 0.0085	797.1	788.6	779.9	771.1
x1 = 0.0125	798.7	790.1	781.5	772.6
x1 = 0.0165	800.3	791.7	783	774.1
x1 = 0.0205	801.8	793.2	784.4	775.6
x1 = 0.0305	805.5	796.9	788.1	779.2
x1 = 0.05	812.6	803.8	795	786
x1 = 0.1	828.7	819.7	810.7	801.5
x1 = 0.15	842.6	833.6	824.5	815.1
x1 = 0.2	855	845.8	836.5	827.1
x1 = 0.25	865.9	856.6	847.3	837.8
x1 = 0.3	875.7	866.3	856.9	847.3
x1 = 0.35	884.5	875	865.5	855.8
x1 = 0.4	892.4	882.9	873.2	863.5
x1 = 0.45	899.6	889.9	880.2	870.5
x1 = 0.4999	906	896.4	886.7	876.8
x1 = 0.55	912	902.3	892.5	882.6
x1 = 0.5999	917.4	907.7	897.8	887.9
x1 = 0.65	922.5	912.6	902.8	892.8
x1 = 0.6999	927.1	917.2	907.3	897.3
x1 = 0.7499	931.3	921.4	911.5	901.5
x1 = 0.7999	935.3	925.4	915.4	905.4
x1 = 0.8499	939	929	919.1	909
x1 = 0.8998	942.4	932.4	922.5	912.5
x1 = 0.9498	945.7	935.7	925.7	915.7
x1 = 1	948.6	938.7	928.7	918.6
